From US11180495B2 (Abbisko Therapeutics Co., Ltd., priority 2017, dated 2021)
Read-outs that look alike come from different tables or passages of the source.

How the values were obtained:
[1] = tested on: M-NFS-60 mouse myeloid leukemia lymphocytes; assay: CSF-1R-related cell proliferation experiment (Cell Titer Glo); format: cell-based; conditions: 72 h, M-NFS-60 cells, 3 days, CTG
Method: Functional effects of compounds on cell proliferation were evaluated by using Cell Titer Glo (CTG) study in the present invention. M-NFS-60 mouse myeloid leukemia lymphocytes (cat. No. CCBJ078) from National Institutes For Food and Drug Control were cultured in the incubator under conditions of RPMI 1640 (Gibco, cat. No. 11875-119), 10% fetal bovine serum (Gibco, 10099-141), human 10 ng/mL M-CSF macrophage colony-stimulating factor (R&D, cat. No. MVN0915101), 37° C. and 5% CO2. Since ATP is an index for viable cell metabolism, CTG (Promega, #G7573) reagent is a homogeneous detection method for detecting the number of viable cells in the culture by quantifying ATP. Therefore, compound-mediated inhibition for cell proliferation/survival was evaluated by quantifying ATP in cells, and the specific experimental process was as follows: • 1. The cells were plated into a tissue-culture-medium-treated 96-well plate (Costar #3904) with 5,000 cells/well/80 μL fresh culture medium: • 2. 24 hours later, 10 μL culture medium containing testing compound with 10-fold of final concentration was added to each well; • 3. 10 μL of culture medium containing M-CSF with 10-fold of the final concentration was then added to each well: • 4. dosage effect was evaluated by testing the 3-fold serial dilutions of the compound; • 5. after the cells were incubated for 3 days at 37° C. and 5% CO2, the inhibition on cell survival was quantified after 50 μL of CTG was added and the luminescence assay was performed; • 6. the compound concentration leading to half maximal inhibitory (IC50) and the compound concentration leading to absolute half maximal inhibitory (Absolute IC50) were measured by a plate reader (M1000, Tecan) and a four-parameter curve fit in Graphpad Prism 7. D. CSF-1R-Related Cell Proliferation Experiment

PDGFRA = PDGFRA (Homo sapiens, UniProt P16234); assay: PDGFRA in vitro biochemical kinase study (Caliper EZ Reader); conditions: FAM-labeled polypeptide, Caliper EZ Reader II; read-out: Enzymatic experiment PDGFRA IC50
Method: (§1) In the present invention, the inhibitory activity of compounds against the CSF-1R activity was determined by using CSF-1R ADP-Glo assay. The compound-mediated inhibition effect was achieved by inhibiting the production of ADP from consumption of ATP, and the activities of compounds were evaluated by using the ADP-Glo kit (Promega, cat. No. V9101). The specific experimental process was as follows: • 1. The kinase reaction performed in the present invention was carried out in a 384-well plate (Perkinelmer, cat. No. 6007290), and 3.95 nM of CSF-1R, 500 μM of ATP and 0.2 mg/mL of polypeptide (Poly (Glu4, Try1), Sigma, cat. No. P0275) were respectively weighed and added to each well: • 2. following reagents were then added to each well to reach the final reaction system: 40 mM Tris, pH 7.5, 20 mM MgCl2, 0.01% Triton X-100, 0.1 mg/mL BSA, 2.5 mM DTT and 0.1% DMSO; • 3. the reaction was conducted at 30° C. for 60 min; • 4. then an equal volume of stop solution (ADP-Glo) was added to the kinase reaction system; • 5. the mixed solution was incubated at 25° C. for 60 min, and the kinase reaction was then terminated; • 6. a two-fold volume of detection reagent was then added to each well; • 7. the mixed solution was incubated at 25° C. for 30 min; • 8. the compound IC50 value was measured by using a plate reader (Tecan, M1000) and a four-parameter curve was generated in Graphpad Prism. B. KIT/PDGFRA In Vitro Biochemical Kinase Study • 1. Preparation of 1-fold kinase buffer and stop solution • 1.1 1-fold kinase buffer: 50 mM HEPES, pH 7.5, 0.0015% Brij-35. • 1.2 stop solution: 100 mM HEPES, pH 7.5, 0.015% Brij-35, 0.2% Coating Reagent #3 50 mM EDTA • 2. Preparation of compound solution • 2.1 Dilution of compound solution • 1) The final concentration of the compound solution was 40 μM. and the concentration of the prepared stock solution was 50 times of the final concentration, i.e., 2 mM. • 2) 80 μL of 100% DMSO was added to the second well of the 96-well plate, then 20 μL of 10 mM compound solution was added, and thereby 2 mM compound solution was prepared, 60 μL of 100% DMSO was added to other wells, 20 μL of compound was taken from the second well, added to the third well and diluted by 4 times. […]

CSF-1R = target: T1, CSF-1R (Homo sapiens, UniProt P07333); assay: CSF-1R in vitro biochemical kinase study (ADP-Glo assay); conditions: 3.95 nM CSF-1R, 500 μM ATP, 30° C. 60 min, read-out: Enzymatic experiment CSF-1R IC50
T1 construct: 3.95 nM of CSF-1R, 500 μM of ATP and 0.2 mg/mL of polypeptide
Method: In the present invention, the inhibitory activity of compounds against the CSF-1R activity was determined by using CSF-1R ADP-Glo assay. The compound-mediated inhibition effect was achieved by inhibiting the production of ADP from consumption of ATP, and the activities of compounds were evaluated by using the ADP-Glo kit (Promega, cat. No. V9101). The specific experimental process was as follows: • 1. The kinase reaction performed in the present invention was carried out in a 384-well plate (Perkinelmer, cat. No. 6007290), and 3.95 nM of CSF-1R, 500 μM of ATP and 0.2 mg/mL of polypeptide (Poly (Glu4, Try1), Sigma, cat. No. P0275) were respectively weighed and added to each well: • 2. following reagents were then added to each well to reach the final reaction system: 40 mM Tris, pH 7.5, 20 mM MgCl2, 0.01% Triton X-100, 0.1 mg/mL BSA, 2.5 mM DTT and 0.1% DMSO; • 3. the reaction was conducted at 30° C. for 60 min; • 4. then an equal volume of stop solution (ADP-Glo) was added to the kinase reaction system; • 5. the mixed solution was incubated at 25° C. for 60 min, and the kinase reaction was then terminated; • 6. a two-fold volume of detection reagent was then added to each well; • 7. the mixed solution was incubated at 25° C. for 30 min; • 8. the compound IC50 value was measured by using a plate reader (Tecan, M1000) and a four-parameter curve was generated in Graphpad Prism. B. KIT/PDGFRA In Vitro Biochemical Kinase Study • 1. Preparation of 1-fold kinase buffer and stop solution • 1.1 1-fold kinase buffer: 50 mM HEPES, pH 7.5, 0.0015% Brij-35. • 1.2 stop solution: 100 mM HEPES, pH 7.5, 0.015% Brij-35, 0.2% Coating Reagent #3 50 mM EDTA • 2. Preparation of compound solution • 2.1 Dilution of compound solution • 1) The final concentration of the compound solution was 40 μM. and the concentration of the prepared stock solution was 50 times of the final concentration, i.e., 2 mM. • 2) 80 μL of 100% DMSO was added to the second well of the 96-well plate, then 20 μL of 10 mM compound solution was added, and thereby 2 mM compound solution was prepared, 60 μL of 100% DMSO was added to other wells, 20 μL of compound was taken from the second well, added to the third well and diluted by 4 times. This serial 4-time dilution was conducted in sequence for the total of 10 concentrations. • 2.2 5-fold compound solution transferred to a reaction plate • 1) 10 μL of solution was taken from each well of the above 96-well plate and added to another 96-well plate, and 90 μL of kinase buffer was added. • 2) 5 μL of solution was taken from the above 96-well plate and added to a 384-well reaction plate. • 2.3 Kinase reaction • 1) KIT/PDGFRA kinase was added to the 1-fold kinase buffer solution to obtain a 2.5-fold kinase solution. • 2) FAM-labeled polypeptide and ATP were added to the 1-fold kinase buffer solution to obtain a 2.5-fold substrate solution. • 3) 10 μL of 2.5-fold kinase solution was added to the 384-well reaction plate, which already contained 5 μL of 5-fold compound in 10% DMSO. And the mixed solution was incubated at room temperature for 10 min. • 4) 10 μL of 2.5-fold substrate solution was added to the 384-well reaction plate. • 5) Kinase reaction and termination: the mixed solution was incubated at 28° C. for a certain period of time, and 25 μL of stop solution was added to stop the reaction. • 2.4 Data reading of Caliper EZ Reader II • 2.5 Calculation of percent inhibition and IC50 • 1) Percent conversion data were copied from the Caliper EZ Reader. • 2) Percent conversion was converted into percent inhibition data, wherein, max referred to percent conversion of the DMSO control, and min referred to percent conversion of the negative control without kinase activity. Percent inhibition=(max−conversion)/(max−min)*100. • 3) The IC50 value was fitted with XLFit excel add-in version 5.4.0.8: Fitting formula: Y=Bottom+(Top−Bottom)/(1+(IC50/X)^HillSlope).

KIT = KIT (Homo sapiens, UniProt P10721); assay: KIT in vitro biochemical kinase study (Caliper EZ Reader); conditions: FAM-labeled polypeptide, Caliper EZ Reader II; read-out: Enzymatic experiment KIT IC50
Method: as §1

[2] = absolute half maximal inhibitory concentration, read-out: Cytological experiment CSF-1R Absolute IC50
[3] = read-out: Cytological experiment CSF1R IC50

Sequence of KIT (P10721 26-976): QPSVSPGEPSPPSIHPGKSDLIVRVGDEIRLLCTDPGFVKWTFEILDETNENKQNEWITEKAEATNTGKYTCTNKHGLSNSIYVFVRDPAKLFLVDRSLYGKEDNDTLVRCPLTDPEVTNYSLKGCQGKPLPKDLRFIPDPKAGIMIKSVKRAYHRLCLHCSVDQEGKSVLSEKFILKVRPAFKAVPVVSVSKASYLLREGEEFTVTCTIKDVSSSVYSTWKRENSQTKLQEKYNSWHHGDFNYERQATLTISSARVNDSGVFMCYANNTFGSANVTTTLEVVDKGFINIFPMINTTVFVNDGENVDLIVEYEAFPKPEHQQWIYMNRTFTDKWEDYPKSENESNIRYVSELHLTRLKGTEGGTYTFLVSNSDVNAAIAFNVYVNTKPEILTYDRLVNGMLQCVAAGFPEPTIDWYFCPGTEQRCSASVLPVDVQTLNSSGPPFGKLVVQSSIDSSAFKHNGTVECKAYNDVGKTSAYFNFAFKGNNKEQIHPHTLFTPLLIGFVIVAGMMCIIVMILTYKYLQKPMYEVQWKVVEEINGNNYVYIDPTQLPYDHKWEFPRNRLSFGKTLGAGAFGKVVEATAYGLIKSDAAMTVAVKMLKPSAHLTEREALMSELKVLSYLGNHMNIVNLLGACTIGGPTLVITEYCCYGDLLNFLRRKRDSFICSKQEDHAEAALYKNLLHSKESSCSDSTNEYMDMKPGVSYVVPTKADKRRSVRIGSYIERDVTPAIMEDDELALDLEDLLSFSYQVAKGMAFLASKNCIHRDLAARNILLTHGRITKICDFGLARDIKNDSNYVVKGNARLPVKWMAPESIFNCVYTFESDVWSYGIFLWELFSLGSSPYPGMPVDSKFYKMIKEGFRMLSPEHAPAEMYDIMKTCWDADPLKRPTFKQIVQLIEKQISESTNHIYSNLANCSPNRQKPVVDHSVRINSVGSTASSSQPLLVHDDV
Sequence of PDGFRA (P16234 24-1089): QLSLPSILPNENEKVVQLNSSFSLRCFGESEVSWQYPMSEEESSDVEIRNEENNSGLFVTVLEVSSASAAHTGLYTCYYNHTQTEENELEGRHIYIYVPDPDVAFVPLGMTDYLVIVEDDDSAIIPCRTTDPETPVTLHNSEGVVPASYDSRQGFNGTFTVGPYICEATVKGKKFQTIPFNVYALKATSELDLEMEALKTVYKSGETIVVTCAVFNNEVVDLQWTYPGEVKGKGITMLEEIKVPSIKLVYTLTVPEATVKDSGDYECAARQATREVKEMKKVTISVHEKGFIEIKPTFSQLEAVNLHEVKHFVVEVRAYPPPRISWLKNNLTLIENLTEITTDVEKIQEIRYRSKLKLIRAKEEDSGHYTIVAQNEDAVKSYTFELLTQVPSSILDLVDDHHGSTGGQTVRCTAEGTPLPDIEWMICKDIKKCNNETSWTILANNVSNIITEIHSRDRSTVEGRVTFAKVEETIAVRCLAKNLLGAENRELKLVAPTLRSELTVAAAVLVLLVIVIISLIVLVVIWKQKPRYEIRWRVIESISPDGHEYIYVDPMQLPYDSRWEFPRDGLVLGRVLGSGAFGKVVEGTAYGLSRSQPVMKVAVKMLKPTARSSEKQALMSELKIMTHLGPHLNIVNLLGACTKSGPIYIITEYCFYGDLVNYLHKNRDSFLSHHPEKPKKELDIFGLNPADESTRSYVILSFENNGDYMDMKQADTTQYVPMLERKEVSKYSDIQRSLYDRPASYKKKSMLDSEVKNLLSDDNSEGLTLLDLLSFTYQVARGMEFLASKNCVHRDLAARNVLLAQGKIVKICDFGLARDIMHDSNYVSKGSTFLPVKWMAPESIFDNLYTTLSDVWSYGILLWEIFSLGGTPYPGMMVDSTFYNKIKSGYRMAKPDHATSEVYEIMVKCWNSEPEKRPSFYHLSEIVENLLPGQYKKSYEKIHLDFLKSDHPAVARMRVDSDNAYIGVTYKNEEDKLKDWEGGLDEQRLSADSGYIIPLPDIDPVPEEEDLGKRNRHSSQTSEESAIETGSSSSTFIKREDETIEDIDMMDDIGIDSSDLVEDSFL
T1 sequence (P07333 20-972): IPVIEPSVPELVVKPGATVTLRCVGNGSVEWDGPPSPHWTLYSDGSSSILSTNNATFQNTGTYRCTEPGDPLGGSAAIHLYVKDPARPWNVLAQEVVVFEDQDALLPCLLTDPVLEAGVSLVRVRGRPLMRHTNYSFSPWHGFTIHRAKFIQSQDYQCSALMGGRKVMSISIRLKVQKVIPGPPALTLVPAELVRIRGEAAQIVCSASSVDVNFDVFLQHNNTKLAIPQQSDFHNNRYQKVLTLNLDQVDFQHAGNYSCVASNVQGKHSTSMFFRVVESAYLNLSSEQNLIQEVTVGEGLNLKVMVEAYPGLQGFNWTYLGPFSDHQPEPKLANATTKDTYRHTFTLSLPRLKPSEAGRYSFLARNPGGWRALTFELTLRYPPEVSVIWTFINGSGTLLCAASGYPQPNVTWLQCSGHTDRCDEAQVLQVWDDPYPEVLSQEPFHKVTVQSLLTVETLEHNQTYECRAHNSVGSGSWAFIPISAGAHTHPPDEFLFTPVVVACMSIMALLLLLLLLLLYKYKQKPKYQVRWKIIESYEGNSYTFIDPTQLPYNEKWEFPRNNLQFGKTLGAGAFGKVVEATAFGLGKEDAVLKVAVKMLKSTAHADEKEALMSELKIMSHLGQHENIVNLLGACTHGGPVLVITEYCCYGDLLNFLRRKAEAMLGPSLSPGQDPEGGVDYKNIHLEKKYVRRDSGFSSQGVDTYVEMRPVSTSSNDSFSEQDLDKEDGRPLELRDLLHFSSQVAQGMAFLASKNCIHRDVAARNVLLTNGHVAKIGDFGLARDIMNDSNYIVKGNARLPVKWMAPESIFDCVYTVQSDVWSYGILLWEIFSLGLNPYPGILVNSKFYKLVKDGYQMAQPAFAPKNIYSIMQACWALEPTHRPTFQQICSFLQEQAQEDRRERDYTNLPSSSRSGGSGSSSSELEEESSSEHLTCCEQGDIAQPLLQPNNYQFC

IC50 [1, 2] [µM]	IC50 [1, 3] [µM]	IC50 (PDGFRA) [µM]	IC50 (CSF-1R) [µM]	IC50 (KIT) [µM]	Compound
0.0188	0.0465	6.91	0.0274	0.248	Cc1nc(-c2cnc(NC(C)C)[nH]c2=O)ccc1Cc1c[nH]c2ncccc12 [Example 1, 5-(5-((1H-pyrrolo[2,3-b]pyridin-3-yl)methyl)-6-methylpyridin-2-yl)-2-(isopropylamino)pyrimidin-4(3H)-one]
0.0315	0.0402	0.681	0.0321	0.0137	Cc1nc(-c2cnc(NC(C)C)n(C)c2=O)ccc1Cc1c[nH]c2ncc(Cl)cc12 [Example 10, 5-(5-((5-chloro-1H-pyrrolo[2,3-b]pyridin-3-yl)methyl)-6-methylpyridin-2-yl)-2-(isopropylamino)-3-methylpyrimidin-4(3H)-one]
